Test results taken from publication PMC8837781, “Suppression of tumor metastasis by a RECK-activating small molecule” (Scientific Reports, 2022).

Experiments:
HDAC1 [1] = target: T1, HDAC1 (Homo sapiens, UniProt Q13547); assay: biochemical; design: HDAC inhibition assay, IC50; conditions: read-out: HDAC inhibition (HDAC1)
HDAC3 [2] = target: T2, HDAC3 (Homo sapiens, UniProt O15379); assay: biochemical; design: HDAC inhibition assay, IC50; conditions: read-out: HDAC inhibition (HDAC3)
HDAC1 [3] = target: T1, HDAC1; assay: HDAC1 inhibition assay (details not given); assay type: biochemical
HDAC3 [4] = target: T2, HDAC3; assay: HDAC3 inhibition assay (details not given); assay type: biochemical

T1 sequence (Q13547 whole entry): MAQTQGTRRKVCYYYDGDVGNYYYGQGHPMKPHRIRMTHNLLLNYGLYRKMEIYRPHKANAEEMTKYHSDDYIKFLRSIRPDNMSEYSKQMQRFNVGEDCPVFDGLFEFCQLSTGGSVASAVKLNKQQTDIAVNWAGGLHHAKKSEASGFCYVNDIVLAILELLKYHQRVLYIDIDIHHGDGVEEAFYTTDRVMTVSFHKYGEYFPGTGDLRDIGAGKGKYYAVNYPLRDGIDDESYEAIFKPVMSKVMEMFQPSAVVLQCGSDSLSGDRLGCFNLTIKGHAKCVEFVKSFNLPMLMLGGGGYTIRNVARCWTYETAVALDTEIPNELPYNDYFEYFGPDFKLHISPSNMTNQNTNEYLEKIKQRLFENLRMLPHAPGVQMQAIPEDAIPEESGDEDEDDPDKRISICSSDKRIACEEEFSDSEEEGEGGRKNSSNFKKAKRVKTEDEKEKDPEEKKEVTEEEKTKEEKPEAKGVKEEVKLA
T2 sequence (O15379 whole entry): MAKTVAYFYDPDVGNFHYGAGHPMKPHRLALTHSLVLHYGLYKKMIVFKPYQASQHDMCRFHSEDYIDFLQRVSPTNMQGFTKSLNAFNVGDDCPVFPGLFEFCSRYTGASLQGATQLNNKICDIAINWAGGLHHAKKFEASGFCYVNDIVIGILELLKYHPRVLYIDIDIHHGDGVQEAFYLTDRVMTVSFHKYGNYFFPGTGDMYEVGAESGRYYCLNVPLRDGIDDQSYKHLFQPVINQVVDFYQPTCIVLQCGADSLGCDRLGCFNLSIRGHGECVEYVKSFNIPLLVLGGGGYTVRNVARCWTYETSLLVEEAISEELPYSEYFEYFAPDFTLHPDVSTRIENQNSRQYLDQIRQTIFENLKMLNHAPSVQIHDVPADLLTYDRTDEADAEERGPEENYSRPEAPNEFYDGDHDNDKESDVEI

Molecule `Nc1ccccc1NC(=O)c1ccccc1` [NAPB] has an IC50 (HDAC1 [1]) of 8 µM and an IC50 (HDAC3 [2]) of 5 µM.

For `Cc1ccc(C(=O)Nc2ccccc2O)cc1` [NHPMB], the IC50 (HDAC1 [1]) was 3 µM and the IC50 (HDAC3 [2]) was 3 µM.

Work on `Cc1ccc(NC(=O)c2ccccc2N)cc1` [NTAB] yielded an IC50 (HDAC1 [1]) greater than 100 µM and an IC50 (HDAC3 [2]) greater than 100 µM.

For `Cc1ccc(C(=O)Nc2ccccc2N)cc1` [#638, DSK638], the IC50 (HDAC1 [3]) was roughly 5 µM and the IC50 (HDAC3 [4]) was roughly 10 µM.

In the case of `Cc1ccc(C(=O)Nc2ccccc2)cc1` [NPMB], the IC50 (HDAC1 [1]) is reported as greater than 100 µM and the IC50 (HDAC3 [2]) is reported as greater than 100 µM.
